{
  "source": "patent US7442393B2",
  "about": "“Herbal extracts of Salicornia species, process of preparation thereof, use thereof against tuberculosis” (priority 2003, dated 2008)",
  "test_system": "M. tuberculosis H37Rv",
  "test": "In vivo screening of antitubercular activity in infected mice model of experimental tuberculosis",
  "design": "species or system Female swiss mice",
  "conditions": "25 mg/kg body weight for 10 days after infection",
  "data": [
    {"smiles": "C[C@@H]1CN(c2c(F)c(N)c3c(=O)c(C(=O)O)cn(C4CC4)c3c2F)C[C@H](C)N1", "note": "[sparfloxicin]", "values": [
      {"measurement": "general health and body weight of infected mice", "value": "healthy, gained weight"},
      {"measurement": "mortality of infected mice", "value": "none of the mice died"}
    ]}
  ]
}
